Laboratory results taken from a melting point compilation (Tetko et al.; mined from patent text by program, amines drawn as free bases though some values may be those of a salt).

First: CC(C)(C)OC(=O)N1CCC(c2c[nH]cn2)CC1
Second: O=C(Nc1ccc2cc(CN3CCCC3)cnc2c1)N1CCC(c2ccc(Cl)cc2)CC1
The melting point of the first is lower: 198 °C for the first, 249 to 251 °C for the second.

First: NS(=O)(=O)c1cccc(-c2cccc(-c3nc(-c4ccc(C(F)(F)F)nc4)cc(C(F)(F)F)n3)c2)c1
Second: NS(=O)(=O)c1ccc(-c2noc(-c3cnn4c(C(F)(F)F)cc(-c5ccc(C(F)(F)F)cc5)nc34)n2)s1
The melting point of the first is lower: 211 °C for the first, 276 °C for the second.

Compared with `CCOc1c(OC)cc(COc2ccc(N)nn2)cc1OC`, `CCCCN(CCCC)c1cc(OC)c(C=Cc2cccs2)c(OC)c1` is lower in melting point: 169 to 171 °C for the first, 90 °C for the second.

First: COc1ccsc1C1OC(=O)NC1=O (centres undefined)
Second: COc1cc(Cl)cc(Cl)c1C=O
The melting point of the first is higher: 156 to 158 °C for the first, 110 to 111 °C for the second.

First: O=C(O)c1cn(-c2ccc(F)cc2F)c2c(F)c(F)c(F)c(F)c2c1=O
Second: O=C(c1c(F)cccc1F)N1COCN(c2ccc(S(=O)C(F)(C(F)(F)F)C(F)(F)F)cc2F)C1=O (centres undefined)
The melting point of the first is higher: 250 to 252 °C for the first, 40 to 45 °C for the second.

First: COc1ccc(C)cc1NC(=O)Nc1ccc(N2CCN(c3ncccn3)CC2)cc1
Second: Clc1ccc(N2CCN(Cc3coc4cccnc34)CC2)cc1
The melting point of the first is higher: 220 to 221 °C for the first, 128 to 129 °C for the second.

First: CNC(=O)CCCCCCCN(Cc1ccccc1)S(=O)(=O)c1ccc(Cl)c(COc2cccc3ccc(C)nc23)c1Cl
Second: CCc1cc(OCc2ccc(-c3ccccc3C(=O)OC)cc2)c2ccccc2n1
The melting point of the first is lower: 120 °C for the first, 132 to 134 °C for the second.

Compared with `CS(=O)(=O)Nc1ccc2c(c1)C(=O)C1(CC1)O2`, `Cc1c(C(=O)Cl)ccc(S(C)(=O)=O)c1-c1ccon1` is lower in melting point: 152 to 154 °C for the first, 85 to 88 °C for the second.

First: CC(=O)Oc1c(C(C)(C)C)cc(C#N)c(C)c1C(=O)Nc1ccc(C#N)cc1C(F)(F)F
Second: COC(=O)c1cccc(NC(=O)c2ccc(OC)c(Nc3cccc(C(F)(F)F)c3)c2)c1
The melting point of the first is higher: 171 to 172 °C for the first, 128 to 129 °C for the second.

Compared with `C[C@]1(CN2CCC(NCCc3ccc(C(F)(F)F)cc3)CC2)Cn2cc([N+](=O)[O-])nc2O1`, `C[C@]1(COc2ccc(N3CCC(N4CCN(c5ccc(OC(F)(F)F)cc5)CC4)CC3)cc2)Cn2cc([N+](=O)[O-])nc2O1` is higher in melting point: 80.7 to 84.2 °C for the first, 279 to 281 °C for the second.

First: O=c1[nH]c2ncc(-c3ccccc3)nc2n1CC1CCCCC1
Second: O=C1C2CCCC2=Nc2ccc(Cl)cc2N1Cc1ccccc1 (centres undefined)
The melting point of the first is higher: 253 to 255 °C for the first, 134 to 136 °C for the second.

First: Cc1ccc(S(=O)(=O)N2CCCC2C(=O)OC2c3cc(C#N)ccc3OC(C)(C)C2Br)cc1 (centres undefined)
Second: Cc1ccc(S(=O)(=O)N2CCC(Sc3ccc(Cl)c(Cl)c3)CC2)cc1
The melting point of the first is higher: 162 to 169 °C for the first, 79 to 80 °C for the second.

First: CC(c1ccc(OCCC2OCCCO2)cc1)(c1ccc(OCCC2OCCCO2)cc1)c1ccc(OCCC2OCCCO2)cc1
Second: c1ccc(OCCSCc2nnc(-c3ccc(OCc4ccncc4)cc3)o2)cc1
The melting point of the first is higher: 101 °C for the first, 80 to 90 °C for the second.

First: CCC1C(C)=NN=C(c2ccc(O)c(O)c2)c2cc(O)c(O)cc21 (centres undefined)
Second: CN1CCc2cc(O)c(O)cc2C1C1(c2ccc3ccccc3c2)CCC1 (centres undefined)
The melting point of the first is higher: 250 to 251 °C for the first, 150 to 153 °C for the second.

First: Cc1nnc(CN2C(=O)c3ccccc3C2=O)n1-c1ccc(Cl)cc1C(=O)c1ccccc1
Second: O=C(O)c1ccccc1S(=O)(=O)Cc1c(O[C@H](Cn2ccnc2)c2ccccc2)ccc2c1CCCC2=O
The melting point of the first is lower: 215 to 218 °C for the first, 230 °C for the second.

First: CC1CC(=O)C(C(=O)CCC2CCCO2)C(=O)O1 (centres undefined)
Second: CCCC(=NOCC)C1=C(O)CC(c2c(C)c(C)c(C)c3c2OCC3)CC1=O (centres undefined)
The melting point of the first is lower: 43 to 45 °C for the first, 108 °C for the second.

Compared with `CC(C)(C)C=C[C@H](O)c1ccc(F)cc1`, `CC(C)(NC(=O)CCn1ccnc1)c1ccc(Cl)cc1` is higher in melting point: 38 to 40 °C for the first, 154 to 155 °C for the second.

First: Cc1nn(-c2cc3nc(S(C)=O)sc3cc2F)c(=O)n1C (centres undefined)
Second: CCOC(=O)C1CN(C2CC2)c2nc3cc(F)c(F)cc3cc2C1=O (centres undefined)
The melting point of the first is higher: 199 to 201 °C for the first, 172 °C for the second.

First: CCOCCOC(=O)C(=O)Nc1nc(-c2ccc(OC)cc2)cs1
Second: CCOC(=O)COc1ccc(N(C)c2cc3ccc(Cl)cc3c(Cl)n2)cc1
The melting point of the first is higher: 130 to 133 °C for the first, 99 °C for the second.

First: Nc1nc(NCCNCC(O)COc2ccccc2)c2ccccc2n1 (centres undefined)
Second: Cc1ccc2ccccc2c1Nc1ccccc1C(=O)O
The melting point of the first is lower: 152 to 156 °C for the first, 215 to 216 °C for the second.

First: CC(=O)Nc1ncc(C)cc1C(C)=O
Second: COC(=O)c1cc(C)sc1NC(=O)C(C)C
The melting point of the first is higher: 99 to 100 °C for the first, 63 to 65 °C for the second.

Compared with `CCC(=O)c1cc(Cl)c(Cl)c2c1OCC(CO)O2` (centres undefined), `CCc1cccc2c3c([nH]c12)C(CC)(CC(N)=O)OCC3` (centres undefined) is higher in melting point: 121 to 123 °C for the first, 189 to 190 °C for the second.

First: C=CCc1cc(CC(=O)NCCCC)ccc1O
Second: CCCCN(CCCC)c1cc(=O)n(-c2ccc(S(=O)(=O)O)cc2)[nH]1
The melting point of the first is lower: 48 to 50 °C for the first, 267 to 269 °C for the second.

Compared with `COCN1C(=O)C(NC(=O)Nc2cccc(C(=O)NS(C)(=O)=O)c2)CN(c2ccccc2)c2ccccc21` (centres undefined), `CCCCNC(=O)c1ccc(C(F)(F)F)c(-n2nc(CC)n(Cc3ccc(-c4ccccc4S(=O)(=O)NC(=O)OC(C)(C)C)cc3F)c2=O)c1` is lower in melting point: 199 to 205 °C for the first, 114 to 116 °C for the second.

Compared with `CC(Oc1cccc(Oc2c(Cl)cc(C(F)(F)F)cc2Cl)c1)C(=O)O` (centres undefined), `CCNC(=O)n1nc(Oc2c(Cl)cc(C(F)(F)F)cc2Cl)cc1-c1ccc(Cl)cc1` is lower in melting point: 120 °C for the first, 88 to 89 °C for the second.

First: CCOC(=O)c1ccc(-c2nc(COc3ccc(COc4nn(-c5ccccc5)cc4/C=C/P(=O)(OCC)OCC)cc3OC)c(C)o2)s1
Second: CCCCc1oc2ccccc2c1C(=O)NCc1ccc2c(-c3ccccc3)c(OCc3nnn[nH]3)ccc2c1
The melting point of the first is lower: 114 to 115 °C for the first, 192 to 196 °C for the second.

First: CN1C(=O)C(C(=O)Nc2ccc(Oc3ncc(Cl)cc3Cl)cc2)C(=O)N(C)C1=O
Second: COC(=O)C1(C)CC(C(=O)Nc2ccc(Cl)cc2)=NN1c1ccc(Cl)cc1 (centres undefined)
The melting point of the first is higher: 234 to 235 °C for the first, 138 to 140 °C for the second.

Compared with `On1c(-c2ccc(F)cc2)nc2ccc(Cn3ccnc3)cc21`, `Nc1cccc(COc2cccc3cccnc23)c1` is higher in melting point: 82 °C for the first, 146 to 147 °C for the second.

Compared with `COc1ccc(C2=C(CC(C)N(CCO)C(C)C)C(=O)NCCC2)cc1` (centres undefined), `CCn1nc(-c2ccccc2)c(-c2csc(-c3ccc(OC)cc3)n2)c(Nc2cccnc2)c1=O` is higher in melting point: 109 to 111 °C for the first, 201 to 202 °C for the second.

Compared with `Cc1ccnc(CN(C(=O)C(C)Cl)c2ccccc2)n1` (centres undefined), `N#Cc1ccc(N)cc1Sc1ccccc1` is lower in melting point: 110 °C for the first, 69 to 71 °C for the second.

First: Nc1c(OCCNCc2ccccc2)cccc1[N+](=O)[O-]
Second: NNC(=O)CC1(O)c2ccccc2C=Cc2ccccc21
The melting point of the first is lower: 33 to 60 °C for the first, 192 to 194 °C for the second.

First: CCC(CC)Nc1nc(C)nc(N2CCc3cc(OC)cc(Cl)c32)c1C#N
Second: COC[C@H](C)Oc1cc(N(C)S(=O)(=O)c2ccccn2)c2[nH]c(C3=NCC(CN4CCS(=O)CC4)S3)cc2c1 (some centres undefined)
The melting point of the first is higher: 192 to 194 °C for the first, 175 to 176 °C for the second.

Compared with `CC(=O)Nc1cc(I)ccc1Sc1ccc([N+](=O)[O-])cc1[N+](=O)[O-]`, `N#Cc1cc([N+](=O)[O-])ccc1N1CCCCC1` is lower in melting point: 224 to 226 °C for the first, 75 °C for the second.

First: O=C(Nc1ccc(N2CCCCC2)cc1)N(C[C@@H]1CCC[C@H](CN(C(=O)Nc2ccc(N3CCCCC3)cc2)C2CCCCC2)C1)C1CCCCC1
Second: N#CCNC(=O)C1(NC(=O)c2ccc(N3CCNCC3)cc2)CCCCC1
The melting point of the first is lower: 174 to 178 °C for the first, 206 to 210 °C for the second.

Compared with `O=C(O)CO[C@@H]1CCCC[C@H]1NC(=S)Nc1ccccc1` (relative stereo), `COc1ccccc1-n1c(=O)[nH]c2c(C(N)=O)nc(N[C@H]3CC[C@H](OC(N)=O)CC3)nc21` is higher in melting point: 147 to 149 °C for the first, 157 to 160 °C for the second.

First: CC(C)(C)OC(=O)NCc1cccc(C(O)c2cc(Cl)ccc2NCc2ccc(OCc3ccccc3)c(OCc3ccccc3)c2)c1 (centres undefined)
Second: CCOc1nn(Cc2ccc(OCc3cn4c(-c5ccccc5)cccc4n3)cc2)cc1CCC(=O)O
The melting point of the first is lower: 118 to 120 °C for the first, 160 to 161 °C for the second.

Compared with `N#Cc1cc([N+](=O)[O-])ccc1N1CCC(N2CCCCC2)CC1`, `Nc1c2c(nc3ccccc13)CCCC2N1CCOCC1` (centres undefined) is higher in melting point: 134 to 135 °C for the first, 215 to 217 °C for the second.

First: N#CC1CCn2c(cc3ccccc32)C1 (centres undefined)
Second: Clc1ccc(C2=C[C@H](CN3CC=C(c4ccccc4)CC3)CCC2)cc1
The melting point of the first is lower: 116 to 118 °C for the first, 138 to 141 °C for the second.

First: O=C(O)c1ccccc1Sc1ccc(C(O)=NCc2ccccc2)c(C(=O)O)c1
Second: CN(CCC=C1c2ccccc2COc2ccccc21)CCCCCC(O)c1ccc(C(C)(C)C)cc1 (centres undefined)
The melting point of the first is higher: 289 to 294 °C for the first, 73 to 75 °C for the second.

First: COCCOc1cc(N(C)S(=O)(=O)c2cccs2)c2[nH]c(C(N)=O)cc2c1
Second: CCOC(=O)c1cc2c(C(F)(F)F)cc(OCC(=O)O)cc2n1C
The melting point of the first is higher: 214 to 215 °C for the first, 200 to 202 °C for the second.

First: CCN1C(=O)C(C)(C)C(=O)N(C)c2cc(CCN(CCn3cc(C)c4occc4c3=O)Cc3cc(C)nn3C)ccc21
Second: CCN(CC)CCc1ccc(NC(=O)C#Cc2ccc(C(F)(F)F)cc2Cl)cc1
The melting point of the first is higher: 171 to 173 °C for the first, 145 to 150 °C for the second.

Compared with `Cc1ccc(C)n1C1=CC2=C(CC1)CCc1[nH]c(=O)c(=O)[nH]c12`, `CCOC(=O)c1c2c3c(cccc3n1C)C(OC)CC2` (centres undefined) is lower in melting point: over 265 °C for the first, 63 to 64 °C for the second.

First: Fc1cc(N=C2NCCN2)c(F)c(F)c1F
Second: Cc1cc(O)nc(Oc2cc(C(F)(F)F)nn2C)c1
The melting point of the first is lower: 141 to 143 °C for the first, 159 °C for the second.

First: CCCCCc1nc2c(N)nc3ccccc3c2s1
Second: CCc1ccc(OCCc2c[nH]cn2)cc1
The melting point of the first is lower: 119 to 121 °C for the first, 178 °C for the second.

First: O=S(=O)(NS(=O)(=O)OCC(F)(F)F)OCC(F)(F)F
Second: CC(=O)NC1CN(CCN2CCOCC2)S(=O)(=O)c2sc(S(N)(=O)=O)cc21 (centres undefined)
The melting point of the first is lower: 55 to 58 °C for the first, 110 to 112 °C for the second.

First: CC(C)(Oc1ccc(OCc2noc(-c3ccc(C(C)(C)C)cc3)n2)cc1)C(=O)O
Second: COc1ccc(C2=NN(c3ccc(NS(=O)(=O)c4ccc(C)cc4)cc3)C(=O)[C@H]3CC=CC[C@@H]23)cc1OC (relative stereo)
The melting point of the first is lower: 143 °C for the first, 229 to 230 °C for the second.

First: COc1ccc(S(=O)(=O)N2C(=O)C(c3ccccc3OC)(N3CCC[C@H]3C(=O)N3CCC3)c3cc(Cl)ccc32)c(OC)c1 (some centres undefined)
Second: CCOC(=O)C(C#N)=CNc1ncccc1Cl
The melting point of the first is higher: 161 to 166 °C for the first, 140 to 142 °C for the second.
